From patent US20260217712A1, “SOLID STATE FORMS OF MNK INHIBITORS” (4E Therapeutics, Inc., priority 2023, published 2026)
Converted amounts (≈) assume the structure as drawn.

Tests used:
Assay type in all cases: physicochemical
[1] = Variable temperature XRPD (VT-XRPD)
Source text: (§1) XRPD diffractograms were collected on a PANalytical Empyrean diffractometer using Cu Kα radiation (45 kV, 40 mA, λ=1.544398 Å) in reflection geometry. The instrument was fitted with an Anton Paar CHC plus+ stage fitted with graphite/Kapton windows and equipped with air cooling coupled or a low vacuum pump system using an Edwards RV3 pump. A programmable divergence slit (in automatic mode), with a 10 mm fixed incident beam mask, Ni filter and 0.04 rad Soller slits were used on the incident beam. A PIXcel3D detector, placed on the diffracted beam, was fitted with a programmable anti-scatter slit (in automatic mode) and 0.04 rad Soller slits.
For variable temperature (VT-XRPD) experiments the samples were prepared and analyzed in an Anton Paar chromed sample holder. The sample chamber was under ambient atmosphere and a heating/cooling rate of 10° C./min was used with a 2 min isothermal hold before the measurement started. The measurement parameters are as per the standard screening data collection method (detailed above). Measurements were taken at the following temperatures: 25, 80, 170, 250, and 25° C.

[2] = Static storage at 40° C./75% RH, XRPD and HPLC post storage; details: for stability to storage at 40° C./75% RH (in words): 40° C./75% RH (elevated temperature and humidity); for HPLC purity post storage at 40° C./75% RH: 7 days
How it was run: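 Solids isolated as counter-ion salts of the compound were stored statically at 40° C./75% RH and then re-examined by XRPD for solid-form changes. Chemical purity after storage was checked on an Agilent HP1100/Infinity II 1260 series HPLC system fitted with a diode array detector and running OpenLAB software.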

[3] = Thermodynamic solubility in simulated media and buffers; details: 25° C./24 h
Method: The thermodynamic solubility for Pattern 11 was determined in 3 simulated media and two buffers. […]

XRPD under vacuum = details: for XRPD under vacuum: after 30 min under vacuum
Source text: as §1
For XRPD under vacuum the samples were prepared and analyzed in an Anton Paar chromed sample holder. The sample temperature was kept constant throughout at 25° C. The measurement parameters are as per the standard screening data collection method (detailed above). An initial measurement was taken before the vacuum was initiated and then subsequently at 10 min intervals. Data collection was stopped after three consecutive scans showing no change.

[4] = Single crystal X-ray diffraction
Method: Crystals of Structure (I) Pattern 3 were obtained by evaporation of a THF:water 9:1 solution. A crystal of Structure (I) Pattern 3 of sufficient size and quality for analysis by single crystal X-ray diffraction was isolated from the sample with approximate dimensions 0.15×0.05×0.02 mm.
The single crystal X-ray structure of Structure (I) Pattern 3 was determined at 293(2) K and a summary of the structural data can be found in Table 41. The crystal structure of Structure (I) Pattern 3 was solved in the triclinic space group P-1 with the final R1 [I>2σ(I)]=4.36%. The structure was identified as depicted in FIG. 89 and FIG. 90 and the asymmetric unit found to contain two molecules of Structure (I).

LogD = assay: LogD
[5] = Thermodynamic solubility in simulated media and buffers; details: listed as Structure (I) Pattern 3

For Cc1cc(Nc2cc(N)ncn2)c(=O)n2c1C(=O)NC21CCC2(CC2)CC1 [Pattern 3], which “VT-XRPD form at 25-80° C.” value ([1]; 25-80° C.) is on record?
The value was 25-80° C.: Pattern 3.

What about the “VT-XRPD form at 175° C.” value [1] of the same molecule?
Its value is “Pattern 10 was again observed”.

What about the “VT-XRPD form at 175° C.” value ([1]; listed as Lot B Sample 1) of the same molecule?
The value was 175° C.: Pattern 10.

And the “VT-XRPD form at 250° C.” value ([1]; 250° C., listed as Lot B Sample 1)?
Its value is 250° C.: Patterns 10 and 11.

And the “VT-XRPD form on cooling to 25° C.” value ([1]; cooling to 25° C.)?
The value was “Cooling to 25° C.: Patterns 11 and 3”.

What about the “stability to storage at 40° C./75% RH (in words)” value [2] of the same molecule?
The value was “good stability to storage”.

And the “stability to storage at 40° C./75% RH (in words)” value ([2]; listed as Lot B)?
The value was “remained unchanged”.

What about the “HPLC purity post storage at 40° C./75% RH” value ([2]; 40° C./75% RH, listed as 9-5) of the same molecule?
The value was 98.5%.

What about the “HPLC purity post storage at 40° C./75% RH” value ([2]; 40° C./75% RH, listed as Lot B Sample 1) of the same molecule?
The value was 98.8%.

And the “change of chemical purity on storage at 40° C./75% RH (in words)” value ([2]; 40° C./75% RH, listed as 9-5)?
Its value is “small decrease in chemical purity”.

What about the “Solubility FaSSGF” value ([3]; FaSSGF, listed as Structure (I) Pattern 3) of the same molecule?
Its value is 26 µg/mL (≈ 71 µM).

And the “Solubility FaSSIF” value ([3]; FaSSIF, listed as Lot B Sample 2)?
The value was “FaSSIF-0.0016 mg/mL”.

And the “Solubility FeSSIF” value ([3]; FeSSIF, listed as Lot B Sample 2)?
Its value is “FeSSIF-0.0060 mg/mL”.

What about the “Solubility pH 2.0” value ([3]; pH 2.0 buffer, listed as Lot B Sample 2) of the same molecule?
Its value is “pH 2.0-0.012 mg/mL”.

And the “Solubility pH 7.4” value ([3]; pH 7.4 buffer)?
The value was “pH 7.4-0.001 mg/mL”.

What about the XRPD under vacuum (XRPD under vacuum; listed as Lot B) of the same molecule?
Its XRPD under vacuum is “converted to Pattern 10”.

And the XRPD under vacuum (XRPD under vacuum; listed as Lot B Sample 1)?
The XRPD under vacuum was “Conversion to Pattern 10 after 30 min”.

What about the “XRPD after vacuum released” value (XRPD under vacuum; vacuum released for 30 min, ambient conditions, listed as Lot B Sample 1) of the same molecule?
The value was “Conversion back to Pattern 3 after”.

And the “F(000)” value [4]?
Its value is 796.

And the “Density (calculated)” value ([4]; 293(2) K)?
The value was 1.339 Mg/m^3.

What about the “Unit cell dimensions a” value ([4]; 293(2) K) of the same molecule?
The value was “a = 10.1823(3) Å Å”.

And the “Unit cell dimensions b” value ([4]; 293(2) K)?
The value was “b = 12.1136(4) Å Å”.

And the “Unit cell dimensions c” value ([4]; 293(2) K)?
The value was “c = 16.6675(3) Å Å”.

And the “Unit cell dimensions α” value ([4]; 293(2) K)?
Its value is “α = 72.512(2)°”.

What about the “Unit cell dimensions β” value ([4]; 293(2) K) of the same molecule?
The value was “β = 79.465(2)°”.

And the “Unit cell dimensions γ” value ([4]; 293(2) K)?
The value was “γ = 72.661(3)°”.

What about the Z ([4]; 293(2) K) of the same molecule?
Its Z is 4.

And the Crystal system ([4]; 293(2) K, wavelength 1.54184 Å)?
Its Crystal system is “Triclinic”.

What about the Crystal habit ([4]; crystal from THF:Water 9:1, evaporative) of the same molecule?
Its Crystal habit is “Colorless lath”.

What about the Volume ([4]; unit cell, 293(2) K) of the same molecule?
The Volume was 1861.87(10) Å^3.

And the Absorption coefficient ([4]; wavelength 1.54184 Å)?
The Absorption coefficient was 0.756 mm^−1.

And the logD (LogD)?
The logD was 3.1.

And the “solubility in simulated fluids and buffers (in words)” value [5]?
Its value is “poor”.
